Experimental data taken from patent US7741488B2, “Tetrahydropyridothiophenes as antiproliferative agents for the treatment of cancer” (4SC AG, priority 2005, dated 2010).

Legend:
[1] = test system: RKOp27 colon adenocarcinoma cells arrested by expression of ectopic p27Kip1; experiment: Alamar Blue cell viability assay on RKO p27 cells arrested by Ponasterone A induced p27Kip1 (cell cycle specific mode of action); assay type: cell-based; details: Homo sapiens, 72 hours, cells arrested by p27Kip1 induced with 10 μM Ponasterone A
Description: To determine the cell cycle specific mode of action, subclones of RKO colon adenocarcinoma cells (RKOp27 or RKOp21 as described by Schmidt et al. in Oncogene 19, 2423-2429; 2000) are seeded into 96 well flat bottom plates at a density of 16000 cells per well in a volume of 50 μl per well in DMEM growth medium with 10% FCS containing 10 μM Ponasterone A. 24 hours after seeding the 50 μl each of the compound dilutions in DMEM medium are added into each well of the 96 Well plate. Each compound dilution is tested as quadruplicates. Wells containing untreated control cells are filled with 50 μl DMEM medium containing 1% DMSO. The cells are then incubated with the substances for 72 hours at 37° C. in a humidified atmosphere containing 5% carbon dioxide. To determine the viability of the cells, 10 μl of an Alamar Blue solution (Biosource) are added and the fluorescence was measured at an extinction of 544 nm and an emission of 590 nm. For the calculation of the cell viability the emission value from untreated cells is set as 100% viability and the emission rates of treated cells are set in relation to the values of untreated cells. Viabilities are expressed as % values. Viability is compared of proliferating cells grown in the absence of the inducer Ponasterone A, versus viability of cells arrested by the expression of ectopic p27Kip1 induced by Ponasterone A.

[2] = test system: RKO (RKOp27) human colon adenocarcinoma cells; experiment: Alamar Blue cell viability assay, anti-proliferative/cytotoxic activity on proliferating (uninduced) RKO p27 cells; assay type: cell-based; details: RKOp27, 72 h, proliferating cells without inducer Ponasterone A
Description: The anti-proliferative/cytotoxic activity of the compounds described herein, can be tested on subclones of RKO (RKOp27) human colon adenocarcinoma cells (Schmidt et al., Oncogene 19, 2423-2429; 2000) using the Alamar Blue cell viability assay (described in O'Brien et al. Eur J Biochem 267, 5421-5426, 2000). The compounds are dissolved as 20 mM solutions in dimethylsulfoxide (DMSO) and subsequently diluted in semi-logarithmic steps. DMSO dilutions are further diluted 1:100 into Dulbecco's modified Eagle's medium (DMEM) containing 10% fetal calf serum to a final concentration twice as much as the final concentration in the test. RKO subclones are seeded into 96 well flat bottom plates at a density of 4000 cells per well in a volume of 50 μl per well. 24 hours after seeding the 50 μl each of the compound dilutions in DMEM medium are added into each well of the 96 Well plate. Each compound dilution is tested as quadruplicates. Wells containing untreated control cells are filled with 50 μl DMEM medium containing 1% DMSO. The cells are then incubated with the substances for 72 hours at 37° C. in a humidified atmosphere containing 5% carbon dioxide. To determine the viability of the cells, 10 μl of an Alamar Blue solution (Biosource) are added and the fluorescence is measured at an extinction of 544 nm and an emission of 590 nm. For the calculation of the cell viability the emission value from untreated cells is set as 100% viability and the emission rates of treated cells are set in relation to the values of untreated cells. Viabilities are expressed as % values.
The corresponding IC50 values of the compounds for anti-proliferative/cytotoxic activity are determined from the concentration-effect curves.
Representative IC50 values for anti-proliferation/cytotoxicity determined in the mentioned assay follow from the following table A, in which the numbers of the compound correspond to the numbers of the examples.

Row | IC50 [1] [µM] | Structure (SMILES) | IC50 [2] [µM]
1 | > 100 | COc1ccccc1CCC(=O)Nc1sc2c(c1C#N)CCN(C(=O)OCCc1ccccn1)C2 [Example 25, 3-Cyano-2-[3-(2-methoxy-phenyl)-propanoylamino]-4,7-dihydro-5H-thieno[2,3-c]pyridine-6-carboxylic acid 2-pyridin-2-yl-ethyl ester] | ≤ 0.3
2 | ≥ 40 | COc1ccccc1CCC(=O)Nc1sc2c(c1C#N)CCN(C(=O)OCc1ccccn1)C2 [Example 26, 3-Cyano-2-[3-(2-methoxy-phenyl)-propanoylamino]-4,7-dihydro-5H-thieno[2,3-c]pyridine-6-carboxylic acid pyridin-2-ylmethyl ester] | ≤ 0.3
3 | > 100 | COc1ccccc1CCC(=O)Nc1sc2c(c1C#N)CCN(C(=O)OCc1ccncc1)C2 [Example 28, 3-Cyano-2-[3-(2-methoxy-phenyl)-propanoylamino]-4,7-dihydro-5H-thieno[2,3-c]pyridine-6-carboxylic acid pyridin-4-ylmethyl ester] | ≤ 0.3
4 | > 100 | COc1ccccc1CCC(=O)Nc1sc2c(c1C#N)CCN(C(=O)OCC1COC(C)(C)O1)C2 (stereo not shown) [Example 30, 3-Cyano-2-[3-(2-methoxy-phenyl)-propanoylamino]-4,7-dihydro-5H-thieno[2,3-c]pyridine-6-carboxylic acid 2,2-dimethyl-[1,3]dioxolan-4-ylmethyl ester] | ≤ 0.3
5 | > 100 | COc1ccccc1CCC(=O)Nc1sc2c(c1C#N)CCN(C(=O)OCC(O)CO)C2 (stereo not shown) [Example 32, 3-Cyano-2-[3-(2-methoxy-phenyl)-propanoylamino]-4,7-dihydro-5H-thieno[2,3-c]pyridine-6-carboxylic acid 2,3-dihydroxy-propyl ester] | ≤ 0.3
6 | > 100 | CCOc1ccccc1CCC(=O)Nc1sc2c(c1C#N)CCN(C(=O)OCC(O)CO)C2 (stereo not shown) [Example 33, 3-Cyano-2-[3-(2-ethoxy-phenyl)-propanoylamino]-4,7-dihydro-5H-thieno[2,3-c]pyridine-6-carboxylic acid 2,3-dihydroxy-propyl ester] | ≤ 0.3
7 | > 100 | COc1ccccc1CCC(=O)Nc1sc2c(c1C#N)CCN(C(=O)OCCO)C2 [Example 34, 3-Cyano-2-[3-(2-methoxy-phenyl)-propanoylamino]-4,7-dihydro-5H-thieno[2,3-c]pyridine-6-carboxylic acid 2-hydroxy-ethyl ester] | ≤ 0.3
8 | > 100 | CCOc1ccccc1CCC(=O)Nc1sc2c(c1C#N)CCN(C(=O)OCCO)C2 [Example 35, 3-Cyano-2-[3-(2-ethoxy-phenyl)-propanoylamino]-4,7-dihydro-5H-thieno[2,3-c]pyridine-6-carboxylic acid 2-hydroxy-ethyl ester] | ≤ 0.3
9 | > 100 | CCOC(=O)N1CCc2c(sc(NC(=O)CCc3ccccc3OC(F)(F)F)c2C#N)C1 [Example 39, 3-Cyano-2-[3-(2-trifluoromethoxy-phenyl)-propanoylamino]-4,7-dihydro-5H-thieno[2,3-c]pyridine-6-carboxylic acid ethyl ester] | ≤ 0.3
10 | > 100 | CCOc1ccccc1CCC(=O)Nc1sc2c(c1C#N)CCN(C(=O)OCCOC)C2 [Example 40, 3-Cyano-2-[3-(2-ethoxy-phenyl)-propanoylamino]-4,7-dihydro-5H-thieno[2,3-c]pyridine-6-carboxylic acid 2-methoxy-ethyl ester] | ≤ 0.3

The remaining lines, values behind:

Row | Structure (SMILES) | IC50 [1] [µM] | IC50 [2] [µM]
11 | COc1cccc(CCC(=O)Nc2sc3c(c2C#N)CCN(C(=O)OCc2ccccn2)C3)c1 [Example 29, 3-Cyano-2-[3-(3-methoxy-phenyl)-propanoylamino]-4,7-dihydro-5H-thieno[2,3-c]pyridine-6-carboxylic acid pyridin-2-ylmethyl ester] | > 100 | ≤ 0.3
12 | COc1cccc(CCC(=O)Nc2sc3c(c2C#N)CCN(C(=O)OCc2cccnc2)C3)c1 [Example 36, 3-Cyano-2-[3-(3-methoxy-phenyl)-propanoylamino]-4,7-dihydro-5H-thieno[2,3-c]pyridine-6-carboxylic acid pyridin-3-ylmethyl ester] | > 100 | ≤ 0.3
13 | COc1cccc(CCC(=O)Nc2sc3c(c2C#N)CCN(C(=O)OCc2ccncc2)C3)c1 [Example 37, 3-Cyano-2-[3-(3-methoxy-phenyl)-propanoylamino]-4,7-dihydro-5H-thieno[2,3-c]pyridine-6-carboxylic acid pyridin-4-ylmethyl ester] | > 100 | ≤ 0.3
14 | COc1cccc(CCC(=O)Nc2sc3c(c2C#N)CCN(C(=O)OCCc2ccccn2)C3)c1 [Example 38, 3-Cyano-2-[3-(3-methoxy-phenyl)-propanoylamino]-4,7-dihydro-5H-thieno[2,3-c]pyridine-6-carboxylic acid 2-pyridin-2-yl-ethyl ester] | > 100 | 0.3 to 2
15 | CCOc1ccccc1CCC(=O)Nc1sc2c(c1C#N)CCN(C(=O)OCc1ccccn1)C2 [Example 41, 3-Cyano-2-[3-(2-ethoxy-phenyl)-propanoylamino]-4,7-dihydro-5H-thieno[2,3-c]pyridine-6-carboxylic acid pyridin-2-ylmethyl ester] | > 100 | ≤ 0.3
16 | CCOc1ccccc1CCC(=O)Nc1sc2c(c1C#N)CCN(C(=O)OCc1cccnc1)C2 [Example 42, 3-Cyano-2-[3-(2-ethoxy-phenyl)-propanoylamino]-4,7-dihydro-5H-thieno[2,3-c]pyridine-6-carboxylic acid pyridin-3-ylmethyl ester] | > 100 | ≤ 0.3
17 | CCOc1ccccc1CCC(=O)Nc1sc2c(c1C#N)CCN(C(=O)OCc1ccncc1)C2 [Example 43, 3-Cyano-2-[3-(2-ethoxy-phenyl)-propanoylamino]-4,7-dihydro-5H-thieno[2,3-c]pyridine-6-carboxylic acid pyridin-4-ylmethyl ester] | ≥ 40 | ≤ 0.3
18 | CCOc1ccccc1CCC(=O)Nc1sc2c(c1C#N)CCN(C(=O)OCCc1ccccn1)C2 [Example 44, 3-Cyano-2-[3-(2-ethoxy-phenyl)-propanoylamino]-4,7-dihydro-5H-thieno[2,3-c]pyridine-6-carboxylic acid 2-pyridin-2-yl-ethyl ester] | > 100 | ≤ 0.3
19 | COCCOC(=O)N1CCc2c(sc(NC(=O)CCc3cccc(OC)c3)c2C#N)C1 [Example 45, 3-Cyano-2-[3-(3-methoxy-phenyl)-propanoylamino]-4,7-dihydro-5H-thieno[2,3-c]pyridine-6-carboxylic acid 2-methoxy-ethyl ester] | > 100 | ≤ 0.3
20 | COc1ccc(OC)c(CCC(=O)Nc2sc3c(c2C#N)CCN(C(=O)OCCO)C3)c1 [Example 46, 3-Cyano-2-[3-(2,5-dimethoxy-phenyl)-propanoylamino]-4,7-dihydro-5H-thieno[2,3-c]pyridine-6-carboxylic acid 2-hydroxy-ethyl ester] | > 100 | 0.3 to 2
21 | COc1ccc(C)cc1CCC(=O)Nc1sc2c(c1C#N)CCN(C(=O)OCCc1ccccn1)C2 [Example 48, 3-Cyano-2-[3-(2-methoxy-5-methyl-phenyl)-propanoylamino]-4,7-dihydro-5H-thieno[2,3-c]pyridine-6-carboxylic acid 2-pyridin-2-yl-ethyl ester] | > 100 | 0.3 to 2
22 | COc1ccc(OC)c(CCC(=O)Nc2sc3c(c2C#N)CCN(C(=O)OCc2cccnc2)C3)c1 [Example 50, 3-Cyano-2-[3-(2,5-dimethoxy-phenyl)-propanoylamino]-4,7-dihydro-5H-thieno[2,3-c]pyridine-6-carboxylic acid pyridin-3-ylmethyl ester] | > 100 | 0.3 to 2
23 | COc1ccc(C)cc1CCC(=O)Nc1sc2c(c1C#N)CCN(C(=O)OCc1cccnc1)C2 [Example 51, 3-Cyano-2-[3-(2-methoxy-5-methyl-phenyl)-propanoylamino]-4,7-dihydro-5H-thieno[2,3-c]pyridine-6-carboxylic acid pyridin-3-ylmethyl ester] | > 100 | ≤ 0.3
